Where two headings read alike, the source gives them in different places.
Experiments:
eosinophil migration = conditions: guinea pigs, cited from earlier work
NC/Nga mice = conditions: cited from earlier work
[1] = in vivo
Procedure: In order to clarify the relationship between the amount of DGLA orally ingested in humans and the internal DGLA level, the amount of DGLA orally ingested was investigated by examination of the diet, and after drawing blood, the amount of DGLA in the serum phospholipids was determined. The subjects were eleven healthy males aged 60-70, and were asked to keep a diary of the content of their diets. From the diary, the amount ingested by each food material was determined for meat, eggs, and seafood known to contain DGLA, and using the DGLA content of each food material calculated from “Fourth revised [sequence] […] From the amount of DGLA ingested per week, the mean amount of DGLA ingested per day was calculated for each person.
On the other hand, blood was drawn the day after the last entry of the diary, and for the serum phospholipid fractions obtained, the fatty acid composition was analyzed according to a standard method. Thus, from the serum the lipid component extracted by the Folch method, a standard method, and the lipid was fractionated on a thin layer chromatography (the developing solution is hexane/diethyl ether=7/3) to obtain the phospholipid fraction. […] The fatty acid methyl ester mixture was analyzed by a capillary gas chromatography to obtain DGLA (% by weight) in the total fatty acids in the serum phospholipid.

CC/C=C\C/C=C\C/C=C\C/C=C\C/C=C\CCCC(=O)OCC [EPA ethylester]
eosinophil migration in the delayed type allergy (eosinophil migration; intraperitoneal administration of 100 mg): can inhibit eosinophil migration

CC/C=C\C/C=C\C/C=C\CCCCCCCC(=O)O [ALA, α-linolenic acid]
prevention of atopic dermatitis (correction of dermatitis symptoms and blood IgE) (NC/Nga mice; same mouse model, diet containing a large amount of ALA, exact dose not known): no effect of preventing atopic dermatitis

CCCCC/C=C\C/C=C\C/C=C\CCCCCCC(=O)O [DGLA, dihomo-γ-linolenic acid]
amount of DGLA required to increase DGLA in serum phospholipid about 3% by weight [1]: about 100 mg per day | increase of DGLA in the serum phospholipid with each increase of about 32 mg in the amount of DGLA ingested [1]: 1 % by weight

CC/C=C\C/C=C\C/C=C\C/C=C\C/C=C\C/C=C\CCC(=O)OCC [DHA ethylester]
eosinophil migration in the delayed type allergy (eosinophil migration; intraperitoneal administration of 50 mg): can inhibit eosinophil migration

CCCCC/C=C\C/C=C\C/C=C\CCCCC(=O)O [GLA, γ-linolenic acid]
formation of atopic dermatitis and IgE production (NC/Nga mice; NC/Nga mice, oral ingestion about 1250 mg/kg/day): effects of inhibiting the formation of atopic dermatitis and IgE production

Reference: patent US10342773B2, “Composition containing dihomo-γ-linolenic acid (DGLA) as the active ingredient” (SUNTORY HOLDINGS LIMITED, priority 2005, dated 2019)
